This passage reports EC50, IC50 and AC50 results from ChEMBL document CHEMBL1201862, “PubChem BioAssay data set” (2004).

For one assay, the system named is Streptococcus. Description: Group A Streptococcus viability loss, dose response, counter-screen for streptokinase expression inhibitor project, luminescence, BacTiterGlo (AID 1915).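 Also: potency for reduction of bacterial viability or growth.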 It is filed as functional, organism-based.
The nature of assay [1]: Counterscreen for AddAB inhibitors: absorbance-based bacterial cell-based high throughput dose response assay for inhibitors of bacterial viability. [Related pubchem assays (depositor defined):AID435030, AID449728, AID449731, AID488942, AID488955, AID488956]. It is filed as functional. (In general: A counterscreen serves to expose hits that act by an unwanted route or on another target.)

Assay [2] deals with T1, Sentrin-specific protease 7 (Homo sapiens, UniProt Q9BQF6).
T1 sequence (Q9BQF6 whole entry): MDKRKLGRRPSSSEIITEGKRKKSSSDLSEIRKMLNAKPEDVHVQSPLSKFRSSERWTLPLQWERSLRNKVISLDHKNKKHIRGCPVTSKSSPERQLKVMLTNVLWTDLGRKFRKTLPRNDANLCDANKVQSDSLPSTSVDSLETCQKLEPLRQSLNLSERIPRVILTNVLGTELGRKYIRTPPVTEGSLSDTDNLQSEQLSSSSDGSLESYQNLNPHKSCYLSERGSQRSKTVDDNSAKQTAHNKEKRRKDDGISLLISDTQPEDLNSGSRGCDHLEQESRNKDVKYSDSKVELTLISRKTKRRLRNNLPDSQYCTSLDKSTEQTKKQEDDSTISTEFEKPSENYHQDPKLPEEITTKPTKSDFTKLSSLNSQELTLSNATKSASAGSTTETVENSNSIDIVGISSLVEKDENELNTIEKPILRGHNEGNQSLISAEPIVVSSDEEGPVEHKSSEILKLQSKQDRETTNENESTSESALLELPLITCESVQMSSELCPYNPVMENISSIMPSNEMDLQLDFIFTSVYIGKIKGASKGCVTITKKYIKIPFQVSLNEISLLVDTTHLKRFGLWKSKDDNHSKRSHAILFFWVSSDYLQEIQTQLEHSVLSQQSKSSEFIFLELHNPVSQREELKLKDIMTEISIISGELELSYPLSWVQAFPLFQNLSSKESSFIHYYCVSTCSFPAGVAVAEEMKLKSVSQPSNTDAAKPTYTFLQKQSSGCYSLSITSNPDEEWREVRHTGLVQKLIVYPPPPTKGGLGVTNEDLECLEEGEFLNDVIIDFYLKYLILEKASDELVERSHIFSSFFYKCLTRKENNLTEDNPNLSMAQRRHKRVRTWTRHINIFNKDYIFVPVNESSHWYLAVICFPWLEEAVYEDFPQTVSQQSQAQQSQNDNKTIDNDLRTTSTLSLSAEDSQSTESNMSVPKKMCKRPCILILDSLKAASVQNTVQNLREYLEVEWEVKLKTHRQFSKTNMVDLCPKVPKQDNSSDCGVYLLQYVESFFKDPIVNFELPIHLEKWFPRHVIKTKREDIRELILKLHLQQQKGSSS
It is filed as functional.

Assay [3] has as its target T2, Sentrin-specific protease 6 (Homo sapiens, UniProt Q9GZR1).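 Also: Luminescence-based dose-response confirmatory assay of SENP6 inhibition, following up an ultra-high-throughput screen.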
T2 sequence (Q9GZR1 whole entry): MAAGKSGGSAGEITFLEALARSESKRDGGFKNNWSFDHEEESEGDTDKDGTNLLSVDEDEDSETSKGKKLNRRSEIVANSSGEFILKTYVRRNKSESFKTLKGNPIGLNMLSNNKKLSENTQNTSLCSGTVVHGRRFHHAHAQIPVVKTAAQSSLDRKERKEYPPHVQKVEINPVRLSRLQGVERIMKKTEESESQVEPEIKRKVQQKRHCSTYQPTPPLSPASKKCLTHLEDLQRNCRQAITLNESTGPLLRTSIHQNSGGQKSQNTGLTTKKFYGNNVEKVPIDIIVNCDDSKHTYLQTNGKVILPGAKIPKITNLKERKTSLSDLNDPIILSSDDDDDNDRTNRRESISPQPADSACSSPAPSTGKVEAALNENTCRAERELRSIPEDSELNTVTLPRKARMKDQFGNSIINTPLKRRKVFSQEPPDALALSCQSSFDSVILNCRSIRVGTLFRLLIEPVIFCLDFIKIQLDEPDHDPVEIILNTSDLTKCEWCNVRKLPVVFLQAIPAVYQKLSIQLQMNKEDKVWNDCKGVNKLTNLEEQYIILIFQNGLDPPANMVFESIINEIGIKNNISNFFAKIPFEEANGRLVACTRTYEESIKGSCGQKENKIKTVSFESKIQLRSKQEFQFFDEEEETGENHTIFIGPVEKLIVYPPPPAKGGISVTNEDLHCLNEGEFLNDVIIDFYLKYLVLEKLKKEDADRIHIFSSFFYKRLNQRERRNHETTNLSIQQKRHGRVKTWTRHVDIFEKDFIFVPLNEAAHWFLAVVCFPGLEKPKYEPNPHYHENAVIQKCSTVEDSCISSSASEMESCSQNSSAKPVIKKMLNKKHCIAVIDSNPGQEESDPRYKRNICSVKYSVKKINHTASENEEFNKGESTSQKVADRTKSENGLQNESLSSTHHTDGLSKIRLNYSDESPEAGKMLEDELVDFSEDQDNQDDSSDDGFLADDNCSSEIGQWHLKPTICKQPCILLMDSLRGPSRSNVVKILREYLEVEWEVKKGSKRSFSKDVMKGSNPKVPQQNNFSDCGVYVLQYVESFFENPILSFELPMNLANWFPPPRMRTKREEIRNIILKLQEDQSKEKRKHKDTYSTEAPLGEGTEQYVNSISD
It is filed as functional.

For a further assay, the target named is T3, Caspase-3 (Homo sapiens, UniProt P42574).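 Also: Dose-response selectivity test against caspase-3 for candidate inhibitors of sentrin-specific proteases (SENPs).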
T3 sequence (P42574 whole entry): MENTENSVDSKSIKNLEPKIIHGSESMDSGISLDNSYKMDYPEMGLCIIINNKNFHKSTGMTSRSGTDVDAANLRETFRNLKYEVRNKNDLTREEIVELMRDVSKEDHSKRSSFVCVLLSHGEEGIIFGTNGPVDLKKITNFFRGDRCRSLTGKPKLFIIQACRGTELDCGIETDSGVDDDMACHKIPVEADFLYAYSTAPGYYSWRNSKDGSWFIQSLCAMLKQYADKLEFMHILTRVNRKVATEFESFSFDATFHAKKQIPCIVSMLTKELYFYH
It is filed as functional.

Assay [4] addresses T4, Tyrosyl-DNA phosphodiesterase 2 (Homo sapiens, UniProt O95551).
T4 sequence (O95551 whole entry): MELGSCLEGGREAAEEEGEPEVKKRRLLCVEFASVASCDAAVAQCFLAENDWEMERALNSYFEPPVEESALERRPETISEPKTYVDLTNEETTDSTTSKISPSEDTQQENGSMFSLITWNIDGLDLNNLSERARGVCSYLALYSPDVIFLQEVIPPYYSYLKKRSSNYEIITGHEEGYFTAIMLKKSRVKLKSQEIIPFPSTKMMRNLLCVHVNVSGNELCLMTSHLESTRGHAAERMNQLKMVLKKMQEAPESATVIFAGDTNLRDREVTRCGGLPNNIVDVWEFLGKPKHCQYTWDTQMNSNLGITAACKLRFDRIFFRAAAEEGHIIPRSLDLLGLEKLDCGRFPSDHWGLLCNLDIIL
Description: human TDP2 enzyme inhibitors, dose response, biochemical, epi absorbance, IC50 (AID 743297).

In a further assay the test system is INS1. The assay is described as follows: beta cell apoptosis inhibitors, cytokine rescue, dose response, luminescence, retest (AID 449756).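 Also: cell death triggered by IL-1 beta plus TNF-alpha plus IFN-gamma mixture; protective hits raise ATP signal compared with cytokine alone wells.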 It is filed as functional, cell-based. The settings on record: Rattus norvegicus.

Active and inactive are the calls of the source.

The term EC50 denotes the concentration that produces a half-maximal response. The term IC50 denotes the concentration at which inhibition is half-maximal. With `O=C(Cc1ccc([N+](=O)[O-])cc1)N/N=C/c1ccc([N+](=O)[O-])o1`, the EC50 with Streptococcus was 21.7 µM (active). Further, the IC50 in assay [1] was 16.6 µM (inactive).

`NS(=O)(=O)c1ccc(NC(=O)COC(=O)c2ccc([N+](=O)[O-])s2)cc1`: the IC50 is 7.78 µM (active) in assay [2], 4.59 µM (active) in assay [3], 10.2 µM (active) at Caspase-3 and 32.2 µM (inactive) in assay [4].

By AC50 is commonly meant the concentration at which the activity in the assay is half-maximal. Turning to `Cn1nc(-c2ccc(Cl)cc2)nc2c(=O)n(C)c(=O)nc1-2`, the AC50 in the assay on INS1 is 0.441 µM (active).

Consider `CCCCNc1cc(NC(C)=O)cc2cc(OC)c(OC)cc12`, for which the IC50 in assay [2] was 19.9 µM (active); in assay [3], 6.78 µM (active); at Caspase-3 it was 20.7 µM (active); in assay [4], 87.5 µM (inactive).

Consider `COc1ccc(C(NC(=O)C(C)C)c2ccc3cccnc3c2O)cc1` (centres undefined), for which the EC50 in the assay on Streptococcus is > 150 µM (not active). The IC50 in assay [1] is > 119 µM (inactive). The AC50 with INS1 was 0.65 µM (active).
